The results in this text go back to patent US8586747B2, “3,3-dimethyl tetrahydroquinoline derivatives” (Hoffmann-La Roche Inc., priority 2010, dated 2013).

The subject of the assay is AMP-activated protein kinase (AMPK). The assay is described as follows: ADP Quest assay for AMPK activators. The class given is biochemical. More on the design: key: fold AMPK activation with vs without activator at 30 µM. The settings on record: fold of AMPK activation to phosphorylate SAMS peptide without and with an activator at the concentration of 30 µM. The protocol:
ADP Quest™ Assay for AMPK Activators
This method evaluates AMP-activated protein kinase (AMPK) activity through detecting the accumulation of ADP product using an ADP Quest kit and determining the E30 values of the small molecular AMPK activators. ADP Quest kit (DiscoveRx, Fremont, Calif.) is stored at −20° C. before use. Before an experiment, thaw the kit (include assay buffer, ADP standard solution, reagent A and reagent B) and equilibrate to room temperature. Dispense the ADP Quest reagents into single-use aliquots and store at −20° C. The compound concentrations typically range from 0 µM to 100 µM by 2-fold dilution. AMP concentrations range from […] to 1 mM as the reference control. In an assay, thaw and equilibrate the assay buffer, reagent A and reagent B to room temperature for 30 minutes prior to use. Mix ATP, SAMS peptide substrate and compound, and place them into the 384-well assay plate. Add reagent A and B based on the assay kit protocol. Incubate the assay plate at room temperature for 30 minutes after addition the mixture followed by the addition of AMPK protein (Invitrogen, CA) to initiate the AMPK phosphorylation reaction. At the same time, reactions with AMPK activator AMP in the absence of enzyme is included as blank control. The reaction fluorescence signal is monitored and recorded on Envision in kinetic mode with the excitation wavelength of 530 nm and emission wavelength of 590 nm. The E30 value, defined as the fold of AMPK activation to phosphorylate SAMS peptide without and with an activator at the concentration of 30 µM, is calculated and analyzed using Prism 5.0.

For `CC(C)C1COC(=O)N1c1cccc(C2Nc3ccc(C(=O)O)cc3CC2(C)C)c1` (stereo in doubt) [Example 119, 2-[3-((S)-4-Isopropyl-2-oxo-oxazolidin-3-yl)-phenyl]-3,3-dimethyl-1,2,3,4-tetrahydro-quinoline-6-carboxylic acid], the E30 is given as 1.5.

The compound `CC1(C)Cc2cc(C(=O)O)ccc2NC1c1cccc(N2C(=O)OCC2Cc2ccccc2)c1` (stereo in doubt) [Example 124, 2-[3-((S)-4-Benzyl-2-oxo-oxazolidin-3-yl)-phenyl]-3,3-dimethyl-1,2,3,4-tetrahydro-quinoline-6-carboxylic acid] came in with an E30 of 1.34.

On to `CC1(C)Cc2cc(C(=O)O)ccc2NC1c1cccc(N2C(=O)OCC2Cc2ccccc2)c1` (stereo in doubt) [Example 127, 2-[3-((R)4-Benzyl-2-oxo-oxazolidin-3-yl)-phenyl]-3,3-dimethyl-1,2,3,4-tetrahydro-quinoline-6-carboxylic acid], for which the E30 amounted to 1.26.

`CC1(C)Cc2cc(C(=O)O)ccc2NC1c1cccc(NC(=O)NCc2ccccc2)c1` (stereo not drawn) [Example 1, 2-[3-(3-Benzyl-ureido)-phenyl]-3,3-dimethyl-1,2,3,4-tetrahydro-quinoline-6-carboxylic acid] showed an E30 of 1.43. For `CC1(C)Cc2cc(Cl)cc(C(=O)NS(=O)(=O)C3CC3)c2NC1c1cccc(NC(=O)c2cnccn2)c1` (stereo not drawn) [Example 2, Pyrazine-2-carboxylic acid [3-(6-chloro-8-cyclopropanesulfonylaminocarbonyl-3,3-dimethyl-1,2,3,4-tetrahydro-quinolin-2-yl)-phenyl]-amide], the E30 amounted to 1.42. Under `CC1(C)Cc2cc(C(=O)O)ccc2NC1c1cccc(NC(=O)c2cccnc2)c1` (stereo not drawn) [Example 3, 3,3-Dimethyl-2-{3-[(pyridine-3-carbonyl)-amino]-phenyl}-1,2,3,4-tetrahydro-quinoline-6-carboxylic acid] stands 1.33; under `CC1(C)Cc2cc(C(=O)O)ccc2NC1c1cccc(NC(=O)c2ccccn2)c1` (stereo not drawn) [Example 4, 3,3-Dimethyl-2-{3-[(pyridine-2-carbonyl)-amino]-phenyl}-1,2,3,4-tetrahydro-quinoline-6-carboxylic acid], 1.33; under `CC1(C)Cc2cc(C(=O)O)ccc2NC1c1cccc(NC(=O)c2cnccn2)c1` (stereo not drawn) [Example 5, 3,3-Dimethyl-2-{3-[(pyrazine-2-carbonyl)-amino]-phenyl}-1,2,3,4-tetrahydro-quinoline-6-carboxylic acid], 1.32.

In turn, `CC1(C)Cc2cc(C(=O)O)ccc2NC1c1cccc(NC(=O)c2cccc(F)c2)c1` (stereo not drawn) [Example 6, 2-[3-(3-fluoro-benzoylamino)-phenyl]-3,3-dimethyl-1,2,3,4-tetrahydro-quinoline-6-carboxylic acid] showed an E30 of 1.31. Under `CC1(C)Cc2cc(C(=O)O)ccc2NC1c1cccc(C(=O)O)c1` (stereo not drawn) [Example 7, 2-(3-Carbonyl-phenyl)-3,3-dimethyl-1,2,3,4-tetrahydro-quinoline-6-carboxylic acid] stands 1.31; under `CC1(C)Cc2cc(C(=O)NS(C)(=O)=O)ccc2NC1c1cccc(N2CCOCC2)c1` (stereo not drawn) [Example 8, N-[3,3-dimethyl-2-(3-morpholin-4-yl-phenyl)-1,2,3,4-tetrahydro-quinoline-6-carbonyl]-methanesulfonamide], 1.29.

In the case of `CC1(C)Cc2cc(C(=O)NS(C)(=O)=O)ccc2NC1c1cccc(C(=O)Nc2ccccc2)c1` (stereo not drawn) [Example 9, 3-(6-Methanesulfonylaminocarbonyl-3,3-dimethyl-1,2,3,4-tetrahydro-quinolin-2-yl)-N-phenyl-benzamide], the E30 is 1.28. Take `CC(C)S(=O)(=O)NC(=O)c1ccc2c(c1)CC(C)(C)C(c1cccc(N3CCOCC3)c1)N2` (stereo not drawn) [Example 10, Propane-2-sulfonic acid [3,3-dimethyl-2-(3-morpholin-4-yl-phenyl)-1,2,3,4-tetrahydro-quinoline-6-carbonyl]-amide]: the E30 stood at 1.27.

For `CC1(C)Cc2cc(C(=O)NS(C)(=O)=O)ccc2NC1c1cccc(NC(=O)c2cnccn2)c1` (stereo not drawn) [Example 11, Pyrazine-2-carboxylic acid [3-(6-methanesulfonylaminocarbonyl-3,3-dimethyl-1,2,3,4-tetrahydro-quinolin-2-yl)-phenyl]-amide], the E30 was found to be 1.25.

Consider `CC1(C)Cc2cc(C(=O)O)ccc2NC1c1cccc(NC(=O)c2ccccc2)c1` (stereo not drawn) [Example 12, 2-(3-Benzoylamino-phenyl)-3,3-dimethyl-1,2,3,4-tetrahydro-quinoline-6-carboxylic acid], for which the E30 amounted to 1.22. `CC1(C)Cc2cc(C(=O)O)ccc2NC1c1cccc(NC(=O)Nc2cccc(F)c2)c1` (stereo not drawn) [Example 13, 2-{3-[3-(3-Fluoro-phenyl)-ureido]-phenyl}-3,3-dimethyl-1,2,3,4-tetrahydro-quinoline-6-carboxylic acid] showed an E30 of 1.21. For the compound `CC1(C)Cc2cc(C(=O)O)ccc2NC1c1cccc(C(=O)Nc2ccccc2)c1` (stereo not drawn) [Example 14, 3,3-Dimethyl-2-(3-phenylcarbamoyl-phenyl)-1,2,3,4-tetrahydro-quinoline-6-carboxylic acid], the E30 is on record as 1.2. `CC(C)(Nc1cccc(C2Nc3ccc(C(=O)O)cc3CC2(C)C)c1)C(=O)O` (stereo not drawn) [Example 15, 2-[3-(1-Carboxy-1-methyl-ethylamino)-phenyl]-3,3-dimethyl-1,2,3,4-tetrahydro-quinoline-6-carboxylic acid] showed an E30 of 3.59. As to `CN1CCN(c2cccc(C3Nc4ccc(C(=O)O)cc4CC3(C)C)c2)C1=O` (stereo not drawn) [Example 16, 3,3-Dimethyl-2-[3-(3-methyl-2-oxo-imidazolidin-1-yl)-phenyl]-1,2,3,4-tetrahydro-quinoline-6-carboxylic acid], the E30 turned out to be 1.59.

Compound `CC1(C)Cc2cc(C(=O)O)ccc2NC1c1cccc(N2CCNC2=O)c1` (stereo not drawn) [Example 17, 3,3-Dimethyl-2-[3-(2-oxo-imidazolidin-1-yl)-phenyl]-1,2,3,4-tetrahydro-quinoline-6-carboxylic acid] returned an E30 of 1.45. `CC1(C)Cc2cc(C(=O)O)ccc2NC1c1cccc(N2CC(=O)NCC2=O)c1` (stereo not drawn) [Example 18, 2-[3-(2,5-Dioxo-piperazin-1-yl)-phenyl]-3,3-dimethyl-1,2,3,4-tetrahydro-quinoline-6-carboxylic acid] yielded an E30 of 1.41.

Compound `CC1(C)Cc2cc(C(=O)O)ccc2NC1c1cccc(N2CC(=O)NC2=O)c1` (stereo not drawn) [Example 19, 2-[3-(2,4-Dioxo-imidazolidine-1-yl)-phenyl]-3,3-dimethyl-1,2,3,4-tetrahydro-quinoline-6-carboxylic acid] came in with an E30 of 1.38.

Compound `CC1(C)Cc2cc(C(=O)O)ccc2NC1c1cccc(NC(=O)c2ccc(F)cc2)c1` (stereo not drawn) [Example 20, 2-[3-(4-Fluoro-benzoylamino)-phenyl]-3,3-dimethyl-1,2,3,4-tetrahydro-quinoline-6-carboxylic acid] registered an E30 of 1.25. For `CC1(C)Cc2cc(C(=O)O)ccc2NC1c1cccc(NC(=O)N2CCOCC2)c1` (stereo not drawn) [Example 21, 3,3-Dimethyl-2-{3-[(morpholine-4-carbonyl)-amino]-phenyl}-1,2,3,4-tetrahydro-quinoline-6-carboxylic acid], the E30 is on record as 1.42. Under `CC1(C)Cc2cc(C(=O)O)ccc2NC1c1cccc(NC(=O)N2CCCCC2)c1` (stereo not drawn) [Example 22, 3,3-Dimethyl-2-{3-[(piperidine-1-carbonyl)-amino]-phenyl}-1,2,3,4-tetrahydro-quinoline-6-carboxylic acid] stands 1.39; under `CN(CC(=O)O)C(=O)c1ccc2c(c1)CC(C)(C)C(c1cccc(N3CCOCC3)c1)N2` (stereo not drawn) [Example 23, {[3,3-Dimethyl-2-(3-morpholin-4-yl-phenyl)-1,2,3,4-tetrahydro-quinoline-6-carboxyl]-methyl-amino}-acetic acid], 1.32; under `CC1(C)Cc2cc(C(=O)N3CCC[C@H]3C(=O)O)ccc2NC1c1cccc(N2CCOCC2)c1` (stereo partly drawn) [Example 24, 1-[3,3-Dimethyl-2-(3-morpholin-4-yl-phenyl)-1,2,3,4-tetrahydro-quinoline-6-carboxyl]-pyrrolidine-2-carboxylic acid], 1.3. Under `CN(C)S(=O)(=O)Nc1cccc(C2Nc3ccc(C(=O)O)cc3CC2(C)C)c1` (stereo not drawn) [Example 25, 2-(3-(N,N-dimethylsulfamoylamino)phenyl)-3,3-dimethyl-1,2,3,4-tetrahydroquinoline-6-carboxylic acid] stands 1.29; under `CC1(C)Cc2cc(C(=O)O)ccc2NC1c1cccc(N2CCN(c3ccccc3)C2=O)c1` (stereo not drawn) [Example 26, 3,3-Dimethyl-2-[3-(2-oxo-3-phenyl-imidazolidin-1-yl)-phenyl]-1,2,3,4-tetrahydro-quinoline-6-carboxylic acid], 1.27; under `CN1CCN(C(=O)Nc2cccc(C3Nc4ccc(C(=O)O)cc4CC3(C)C)c2)CC1` (stereo not drawn) [Example 27, 3,3-Dimethyl-2-{3-[(4-methyl-piperazine-1-carbonyl)-amino]-phenyl}-1,2,3,4-tetrahydro-quinoline-6-carboxylic acid], 1.24.
